# Earlier results, collected in patent publication US20170058346A1, “Methods Employing Non-Coding RNA Expression Assays” (SISTEMIC SCOTLAND LIMITED, priority 2009, published 2017).
# Test system: HDAC
# Conditions: from a literature review
compound,measurement,value
"C[S+](C)[O-] [DMSO, dimethyl sulphoxide]",HDAC inhibitor activity,shown to be an HDAC inhibitor
